Assay results taken from patent US10144706B2 (BRISTOL-MYERS SQUIBB COMPANY, priority 2016, dated 2018).
Read-outs that look alike come from different tables or passages of the source.

Biological target: T1, PD-1/PD-L1 interaction (PD-1-Ig / PD-L1-His) (Homo sapiens, UniProt Q9NZQ7)
T1 construct: hPDL1(18-239)-TVMV-His; TVMV protease site linker (C); made in house; host or cells: HEK293T
Assay: PD-1/PD-L1 Homogenous Time-Resolved Fluorescence (HTRF) binding assay
Conditions: PD-L1-His 10 nM, PD-1-Ig 20 nM, read-out: Range or IC50
Source text: The ability of the compounds of formula (I) to bind to PD-L1 was investigated using a PD-1/PD-L1 Homogenous Time-Resolved Fluorescence (HTRF) binding assay.
Homogenous Time-Resolved Fluorescence (HTRF) Binding Assay.
The interaction of PD-1 and PD-L1 can be assessed using soluble, purified preparations of the extracellular domains of the two proteins. The PD-1 and PD-L1 protein extracellular domains were expressed as fusion proteins with detection tags, for PD-1, the tag was the Fc portion of Immunoglobulin (PD-1-Ig) and for PD-L1 it was the 6 histidine motif (PD-L1-His). All binding studies were performed in an HTRF assay buffer consisting of dPBS supplemented with 0.1% […] bovine serum albumin and 0.05% (v/v) Tween-20. For the h/PD-L1-His binding assay, inhibitors were pre-incubated with PD-L1-His (10 nM final) for 15 m in 4 μl of assay buffer, followed by addition of PD-1-Ig (20 nM final) in 1 μl of assay buffer and further incubation for 15 m. HTRF detection was achieved using europium crypate-labeled anti-Ig (1 nM final) and allophycocyanin (APC) labeled anti-His (20 nM final). Antibodies were diluted in HTRF detection buffer and 5 μl was dispensed on top of the binding reaction. […] Additional binding assays were established between the human proteins PD-1-Ig/PD-L2-His (20 & 5 nM, respectively) and CD80-His/PD-L1-Ig (100 & 10 nM, respectively). […]

T1 sequence (Q9NZQ7 with tags, fused parts or gaps): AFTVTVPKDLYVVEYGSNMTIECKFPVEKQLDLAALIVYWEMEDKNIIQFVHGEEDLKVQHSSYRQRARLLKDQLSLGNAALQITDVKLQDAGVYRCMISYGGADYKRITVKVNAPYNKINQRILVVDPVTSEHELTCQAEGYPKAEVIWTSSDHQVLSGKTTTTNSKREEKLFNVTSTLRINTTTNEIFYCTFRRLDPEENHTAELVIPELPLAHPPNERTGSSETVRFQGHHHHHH

SMILES | IC50 (IC50 range class) [nM] | IC50 (numeric IC50) [nM]
Cc1cc(OCCCN2CC[C@@H](O)C2)ccc1-c1cccc(OCCCCN2CC[C@@H](O)C2)c1C [Example 3004, (R)-1-(3-((3′-(4-((R)-3-hydroxypyrrolidin-1-yl)butoxy)-2,2′-dimethyl-[1,1′-biphenyl]-4-yl)oxy)propyl) pyrrolidin-3-ol] | 1000 to 10000 | –
Cc1c(OCCCNC[C@H](O)CO)cccc1-c1cccc(OCCCN2CC[C@@H](O)C2)c1C [Example 2011, (S)-3-((3-((3′-(3-((R)-3-hydroxypyrrolidin-1-yl)propoxy)-2,2′-dimethyl-[1,1′-biphenyl]-3-yl)oxy)propyl)amino)propane-1,2-diol] | 20.1 to 90 | –
N#Cc1cncc(COc2cc(OCc3cccc(-c4cccc(COc5cc(OCc6cncc(C#N)c6)c(C(=O)NCCO)cc5Cl)c4Cl)c3Cl)c(Cl)cc2C(=O)NCCO)c1 [Example 80200] | 90.1 to 1000 | –
Cc1c(COc2cc(OCc3cncc(C#N)c3)c(CN[C@@H](C(=O)O)[C@H](C)OCc3ccccc3)cc2Cl)cccc1-c1cccc(COc2cc(OCc3cncc(C#N)c3)c(CN[C@@H](C(=O)O)[C@H](C)OCc3ccccc3)cc2Cl)c1C [Example 40960] | 20.1 to 90 | –
CC(=O)c1cc(Cl)c(OCc2cccc(-c3cccc(COc4cc(OCc5cncc(C#N)c5)c(CN[C@](C)(CO)C(=O)O)cc4Cl)c3Cl)c2Cl)cc1OCc1cncc(C#N)c1 [Example 60040] | 0.04 to 20 | –
Cc1c(COc2cc(OCc3cncc(C#N)c3)c(CNC(CCO)C(=O)O)cc2Cl)cccc1-c1cccc(COc2cc(OCc3cncc(C#N)c3)c(CNC(CCO)C(=O)O)cc2Cl)c1C (centres unmarked) [Example 40270] | 0.04 to 20 | –
Cc1c(COc2cc(OCc3cncc(C#N)c3)c(CO)cc2Cl)cccc1-c1cccc(COc2cc(OCc3cncc(C#N)c3)c(CN[C@H](CO)C(=O)O)cc2Cl)c1C [Example 50240] | 0.04 to 20 | –
Cc1c(COc2cc(OCc3cncc(C#N)c3)c(C(=O)N3CCC(=O)CC3)cc2Cl)cccc1-c1cccc(COc2cc(OCc3cncc(C#N)c3)c(C(=O)N3CCC(=O)CC3)cc2Cl)c1C [Example 80230] | 20.1 to 90 | –
Cc1c(OCCCN2CCN(CCO)CC2)cccc1-c1cccc(OCCCN2CCN(CCO)CC2)c1C [Example 2085, 2,2′-((((2,2′-dimethyl-[1,1′-biphenyl]-3,3′-diyl)bis(oxy))bis(propane-3,1-diyl))bis(piperazine-4,1-diyl))bis(ethan-1-ol)] | 90.1 to 1000 | –
Cc1c(COc2cc(OCc3cncc(C#N)c3)c(CN(CC3CC3)C(CCO)C(=O)O)cc2Cl)cccc1-c1cccc(COc2cc(OCc3cncc(C#N)c3)c(CN(CC3CC3)C(CCO)C(=O)O)cc2Cl)c1C (centres unmarked) [Example 40830] | 0.04 to 20 | –
Cc1c(COc2cc(OCc3cncc(C#N)c3)c(CN[C@@H](CO)C(=O)O)cc2Cl)cccc1-c1cccc(COc2cc(OCc3cncc(C#N)c3)c(CN[C@H](CO)C(=O)O)cc2Cl)c1C [Example 40260] | 0.04 to 20 | –
Cc1c(OCCCN(Cc2ccccn2)Cc2ccccn2)cccc1-c1cccc(OCCCN2CC[C@@H](O)C2)c1C [Example 2056, (R)-1-(3-((3′-(3-(bis(pyridin-2-ylmethyl)amino)propoxy)-2,2′-dimethyl-[1,1′-biphenyl]-3-yl)oxy)propyl)pyrrolidin-3-ol] | – | 3180
Cc1c(COc2cc(OCc3cncc(C#N)c3)c(CNC(Cc3ccccc3)C(N)=O)cc2Cl)cccc1-c1cccc(COc2cc(OCc3cncc(C#N)c3)c(CNC(Cc3ccccc3)C(N)=O)cc2Cl)c1C (centres unmarked) [Example 40590] | 90.1 to 1000 | –
CC(=O)c1cc(Cl)c(OCc2cccc(-c3cccc(COc4cc(OCc5cncc(C#N)c5)c(CN[C@](C)(CO)C(=O)O)cc4Cl)c3C)c2C)cc1OCc1cncc(C#N)c1 [Example 60010] | 0.04 to 20 | –
COC(=O)[C@](C)(CO)NCc1cc(Cl)c(OCc2cccc(-c3cccc(COc4cc(OCc5cncc(C#N)c5)c(CN[C@@](C)(CO)C(=O)OC)cc4Cl)c3C)c2C)cc1OCc1cncc(C#N)c1 [Example 40150] | 20.1 to 90 | –
Cc1c(COc2cc(OCc3cncc(C#N)c3)c(CN[C@](C)(CO)C(=O)O)cc2Cl)cccc1-c1cccc(COc2cc(OCc3cncc(C#N)c3)c(CN[C@](C)(CO)C(=O)O)cc2Cl)c1C [Example 2121, (2R,2′R)-2,2′-((((((2,2′-dimethyl-[1,1′-biphenyl]-3,3′-diyl)bis(methylene))bis(oxy))bis(5-chloro-2-((5-cyanopyridin-3-yl)methoxy)-4,1-phenylene))bis(methylene))bis(azanediyl))bis(3-hydroxy-2-methylpropanoic acid)] | 0.04 to 20 | –

SMILES | IC50 (IC50 range class) [nM] | IC50 (numeric IC50) [nM]
Cc1c(OCCCNCC(O)c2cccnc2)cccc1-c1cccc(OCCCN2CC[C@@H](O)C2)c1C (mixture of isomers) [Example 2040, (3R)-1-(3-((3′-(3-((2-hydroxy-2-(pyridin-3-yl)ethyl)amino)propoxy)-2,2′-dimethyl-[1,1′-biphenyl]-3-yl)oxy)propyl)pyrrolidin-3-ol] | 20.1 to 90 | –
Cc1c(OCCCNCCO)cccc1-c1cccc(OCCCNCCO)c1C [Example 2027, 2,2′-((((2,2′-dimethyl-[1,1′-biphenyl]-3,3′-diyl)bis(oxy))bis(propane-3,1-diyl))bis(azanediyl))bis(ethan-1-ol)] | 20.1 to 90 | –
Cc1c(COc2cc(OCc3cncc(C#N)c3)c(CN3CCC[C@@H]3C(N)=O)cc2Cl)cccc1-c1cccc(COc2cc(OCc3cncc(C#N)c3)c(CN3CCC[C@@H]3C(N)=O)cc2Cl)c1C [Example 40690] | 90.1 to 1000 | –
Cc1cc(OCc2cccc(-c3cccc(COc4cc(C)c(CNC(CO)CO)cc4C)c3C)c2C)c(C)cc1CNC(CO)CO [Example 5004, 2,2′-((((((2,2′-dimethyl-[1,1′-biphenyl]-3,3′-diyl)bis(methylene))bis(oxy))bis(2,5-dimethyl-4,1-phenylene))bis(methylene))bis(azanediyl))bis(propane-1,3-diol)] | 0.04 to 20 | –
COc1cc(OCc2cccc(-c3cccc(COc4cc(OCc5cncc(C#N)c5)c(CN(C)CCC(=O)O)cc4Cl)c3C)c2C)c(Cl)cc1CN(C)CCC(=O)O [Example 5031, 3-((4-((3′-((4-(((2-carboxyethyl)(methyl)amino)methyl)-2-chloro-5-((5-cyanopyridin-3-yl)methoxy)phenoxy)methyl)-2,2′-dimethyl-[1,1′-biphenyl]-3-yl)methoxy)-5-chloro-2-methoxybenzyl)(methyl)amino)propanoic acid] | 0.04 to 20 | –
Cc1c(COc2cc(OCc3cncc(C#N)c3)c(CN(CC(C)C)C(CCO)C(=O)O)cc2Cl)cccc1-c1cccc(COc2cc(OCc3cncc(C#N)c3)c(CN(CC(C)C)C(CCO)C(=O)O)cc2Cl)c1C (centres unmarked) [Example 40850] | 0.04 to 20 | –
Cc1c(COc2cc(OCc3cncc(C#N)c3)c(Cl)cc2Cl)cccc1-c1cccc(COc2cc(OCc3cncc(C#N)c3)c(CN[C@H](C(=O)O)[C@@H](C)O)cc2Cl)c1C [Example 70010] | 90.1 to 1000 | –
Cc1c(OCCCN2CC(N(C)C)C2)cccc1-c1cccc(OCCCN2CC(N(C)C)C2)c1C [Example 2087, 1,1′-(((2,2′-dimethyl-[1,1′-biphenyl]-3,3′-diyl)bis(oxy))bis(propane-3,1-diyl))bis(N,N-dimethylazetidin-3-amine)] | 90.1 to 1000 | –
Cc1c(COc2cc(OCc3cncc(C#N)c3)c(CO)cc2Cl)cccc1-c1cccc(COc2cc(OCc3cncc(C#N)c3)c(CNC(CO)(Cc3ccccc3)C(=O)O)cc2Cl)c1C (centres unmarked) [Example 50060] | 0.04 to 20 | –
Cc1c(COc2cc(OCc3cncc(C#N)c3)c(CN[C@H](C(=O)O)[C@@H](C)O)cc2Cl)cccc1-c1cccc(COc2cc(OCc3cncc(C#N)c3)c(CN[C@H](C(=O)O)[C@@H](C)O)cc2Cl)c1C [Example 41100] | 0.04 to 20 | –
CC(=O)c1cc(Cl)c(OCc2cccc(-c3cccc(COc4cc(OCc5cncc(C#N)c5)c(CN[C@@](C)(CO)C(=O)O)cc4Cl)c3C)c2C)cc1OCc1cncc(C#N)c1 [Example 60070] | 0.04 to 20 | –
Cc1c(OCCCN(C)CCc2ccccc2)cccc1-c1cccc(OCCCN2CC[C@@H](O)C2)c1C [Example 2110, (R)-1-(3-((2,2′-dimethyl-3′-(3-(methyl(phenethyl)amino)propoxy)-[1,1′-biphenyl]-3-yl)oxy)propyl)pyrrolidin-3-ol] | 90.1 to 1000 | –
Cc1c(COc2cc(OCc3cncc(C#N)c3)c(CNC(C(=O)O)C(C)C)cc2Cl)cccc1-c1cccc(COc2cc(OCc3cncc(C#N)c3)c(CNC(C(=O)O)C(C)C)cc2Cl)c1C (centres unmarked) [Example 40440] | 0.04 to 20 | –
Cc1c(COc2cc(OCc3cncc(C#N)c3)c(CO)cc2Cl)cccc1-c1cccc(COc2cc(OCc3cncc(C#N)c3)c(CN3CCC[C@H](C(=O)O)C3)cc2Cl)c1C [Example 50120] | 0.04 to 20 | –
CN1CCN(C(=O)c2cc(Cl)c(OCc3cccc(-c4cccc(COc5cc(OCc6cncc(C#N)c6)c(C(=O)N6CCN(C)CC6)cc5Cl)c4Cl)c3Cl)cc2OCc2cncc(C#N)c2)CC1 [Example 80030] | 0.04 to 20 | –
Cc1c(OCCCNCCCN2CCOCC2)cccc1-c1cccc(OCCCN2CC[C@@H](O)C2)c1C [Example 2021, (R)-1-(3-((2,2′-dimethyl-3′-(3-((3-morpholinopropyl)amino)propoxy)-[1,1′-biphenyl]-3-yl)oxy)propyl)pyrrolidin-3-ol] | 20.1 to 90 | –
